Tests used:
[1] = test system: S. aureus Newman; test: Bliss interaction score (quartile over a dose matrix) (fitness difference); higher = more antagonism (negative = synergy)
Method in brief: (§1)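 Fitness here means normalised growth, inferred for single drugs from the combination data. Growth was OD595 at entry into stationary phase, divided by the plate's robust no-drug mean and capped at 1. The Bliss score is observed minus expected fitness, with the expectation being the product, and its quartiles span technical, biological and donor/recipient replicates.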

[2] = test system: S. aureus DSM 20231; test: as above
Method in brief: as §1

[3] = test system: B. subtilis 168; test: as above
Method in brief: as §1

[4] = test system: S. pneumoniae D39V; test: as above
Method in brief: as §1

[5] = test system: S. pneumoniae D39V; test: fitness (endpoint OD595 vs no drug) (fraction); higher = more growth
Method in brief: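 Fitness expresses the optical density reached at the stationary-phase transition as a fraction of the robust mean of no-drug control wells. It is capped at 1. Measurements were OD595 every 30 min for 14 h at 37 °C after inoculation of 384-well plates at OD595 0.01 (30 µl, or 55 µl for S. pneumoniae), minus the first reading.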
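Wherever Bliss interaction score (quartile over a dose matrix) is given: first quartile when negative (synergy) and third quartile when positive (antagonism).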
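Wherever fitness (endpoint OD595 vs no drug) is given: OD595 on entry to stationary phase over no-drug wells; at most 1.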

C[C@@H](O)[C@H]1C(=O)N2C(C(=O)O)=C(SCCNC=N)C[C@H]12 [Imipenem] + CN(C)c1cc(NC(=O)CNC(C)(C)C)c(O)c2c1C[C@H]1C[C@H]3[C@H](N(C)C)C(O)=C(C(N)=O)C(=O)[C@@]3(O)C(O)=C1C2=O [Tigecycline]
Details	Bliss interaction score
[1]	-0.0535
[2]	0.0348
[3]	-0.0658
[4]	0.0689

fitness, [5]
Details	first compound 0.005 µg/mL	first compound 0.0065 µg/mL	first compound 0.01 µg/mL	first compound 0.013 µg/mL	first compound 0.02 µg/mL	first compound 0.026 µg/mL
partner 0.65 µg/mL	0.925	0.992	0.898	0.999	0.932	0.863
partner 1.3 µg/mL	0.922	0.979	0.874	0.893	0.938	0.946
partner 2.6 µg/mL	0.859	0.994	0.87	0.943	0.877	0.956

C[C@@H](O)[C@H]1C(=O)N2C(C(=O)O)=C(SCCNC=N)C[C@H]12 [Imipenem] + CN(N=O)C(=O)N[C@@H](C=O)[C@@H](O)[C@H](O)[C@H](O)CO [Streptozotocin]
Details	Bliss interaction score
[1]	-0.0113
[2]	-0.0317
[3]	-0.138
[4]	0.0577

fitness, [5], one replicate
Details	first compound 0.005 µg/mL	first compound 0.01 µg/mL	first compound 0.02 µg/mL
partner 1.2 µg/mL	0.986	0.949	≥ 1
partner 2.4 µg/mL	0.983	0.931	0.97
partner 4.8 µg/mL	0.917	0.86	0.94

fitness, [5]
Details	first compound 0.0065 µg/mL	first compound 0.013 µg/mL	first compound 0.026 µg/mL
partner 1.2 µg/mL	0.966	0.908	0.908
partner 2.4 µg/mL	0.942	0.884	0.824
partner 4.8 µg/mL	0.968	0.945	0.966

C[C@@H](O)[C@H]1C(=O)N2C(C(=O)O)=C(SCCNC=N)C[C@H]12 [Imipenem] + CN[C@@H]1[C@H](O)[C@H](NC)[C@H]2O[C@@]3(O)C(=O)C[C@@H](C)O[C@H]3O[C@@H]2[C@H]1O [Spectinomycin]
Details	Bliss interaction score
[1]	-0.0557
[2]	-0.043
[3]	-0.0558
[4]	0.0606

fitness, [5], one replicate
Details	first compound 0.005 µg/mL	first compound 0.01 µg/mL	first compound 0.02 µg/mL
partner 4 µg/mL	0.988	0.983	≥ 1
partner 8 µg/mL	0.914	0.886	0.948

fitness, [5]
Details	first compound 0.0065 µg/mL	first compound 0.013 µg/mL	first compound 0.026 µg/mL
partner 4 µg/mL	0.895	0.878	–
partner 8 µg/mL	0.878	0.864	0.813
partner 16 µg/mL	0.788	0.828	0.888

C[C@@H](O)[C@H]1C(=O)N2C(C(=O)O)=C(SCCNC=N)C[C@H]12 [Imipenem] + CN[C@@H]1[C@H](O[C@H]2[C@H](O[C@H]3[C@H](O)[C@@H](O)[C@H](N=C(N)N)[C@@H](O)[C@@H]3N=C(N)N)O[C@@H](C)[C@]2(O)C=O)O[C@@H](CO)[C@H](O)[C@H]1O [Streptomycin]
Details	Bliss interaction score
[1]	0.076
[2]	-0.0295
[3]	0.1
[4]	0.0603

fitness, [5], one replicate
Details	first compound 0.005 µg/mL	first compound 0.01 µg/mL	first compound 0.02 µg/mL
partner 2 µg/mL	≥ 1	0.955	0.988
partner 16 µg/mL	0.779	0.813	0.786

fitness, [5]
Details	first compound 0.005 µg/mL	first compound 0.0065 µg/mL	first compound 0.01 µg/mL	first compound 0.013 µg/mL	first compound 0.02 µg/mL	first compound 0.026 µg/mL
partner 2 µg/mL	–	0.959	–	0.868	–	0.847
partner 4 µg/mL	0.965	0.923	0.986	0.903	0.97	0.886
partner 8 µg/mL	0.837	0.916	0.863	0.907	0.875	0.85

C[C@@H](O)[C@H]1C(=O)N2C(C(=O)O)=C(SCCNC=N)C[C@H]12 [Imipenem] + CN[C@H](CC(C)C)C(=O)N[C@H]1C(=O)N[C@@H](CC(N)=O)C(=O)N[C@H]2C(=O)N[C@H]3C(=O)N[C@H](C(=O)N[C@H](C(=O)O)c4cc(O)cc(O)c4-c4cc3ccc4O)[C@H](O)c3ccc(c(Cl)c3)Oc3cc2cc(c3O[C@@H]2O[C@H](CO)[C@@H](O)[C@H](O)[C@H]2O[C@H]2C[C@](C)(N)[C@H](O)[C@H](C)O2)Oc2ccc(cc2Cl)[C@H]1O [Vancomycin]
Details	Bliss interaction score
[1]	-0.0669
[2]	0.0423
[3]	-0.0736
[4]	-0.184

fitness, [5]
Details	first compound 0.005 µg/mL	first compound 0.0065 µg/mL	first compound 0.01 µg/mL	first compound 0.013 µg/mL	first compound 0.02 µg/mL	first compound 0.026 µg/mL
partner 0.03125 µg/mL	0.991	–	0.973	–	0.958	–
partner 0.0625 µg/mL	0.943	–	0.928	–	0.922	–
partner 0.125 µg/mL	0.783	0.769	0.767	0.798	0.76	0.817
partner 0.25 µg/mL	–	0.0266	–	0.0839	–	0.0574
partner 0.5 µg/mL	–	0.0186	–	0.0324	–	0.0486

C[C@@H](O)[C@H]1C(=O)N2C(C(=O)O)=C(SCCNC=N)C[C@H]12 [Imipenem] + CO[C@H]1/C=C/O[C@@]2(C)Oc3c(C)c(O)c4c(O)c(c(/C=N/N5CCN(C)CC5)c(O)c4c3C2=O)NC(=O)/C(C)=C\C=C\[C@H](C)[C@H](O)[C@@H](C)[C@@H](O)[C@@H](C)[C@H](OC(C)=O)[C@@H]1C [Rifampicin]
Details	Bliss interaction score
[1]	0.0149
[2]	0.0391
[3]	0.0636
[4]	-0.106

fitness, [5], one replicate
Details	first compound 0.005 µg/mL	first compound 0.01 µg/mL	first compound 0.02 µg/mL
partner 0.025 µg/mL	0.856	0.81	0.816
partner 0.2 µg/mL	0	0	0

fitness, [5]
Details	first compound 0.0065 µg/mL	first compound 0.013 µg/mL	first compound 0.02 µg/mL	first compound 0.026 µg/mL
partner 0.05 µg/mL	0.678	0.721	0.726	0.695
partner 0.1 µg/mL	0.402	–	–	0.361
partner 0.2 µg/mL	0.254	–	–	–

Reference: the supplement of paper PMC10627819
